Consider 12 compounds from ChEMBL document CHEMBL5096193, “Potential pharmacological strategies targeting the Niemann-Pick C1 receptor and Ebola virus glycoprotein interaction” (Eur J Med Chem, 2021).

The nature of assay [1]: Inhibition of NPC1/VSV pseudotyped Ebola Viral Glycoprotein protein-protein interaction. The arrangement: species or system Ebolavirus.
For assay [2], the system named is Ebolavirus. Description: Antiviral activity against Ebola virus makona. Type of assay: functional, organism-based. The settings on record: Orthoebolavirus.
Assay [3] deals with Ebolavirus. Description: Antiviral activity against HIV based pseudotyped virus expressing Ebola-GP infected in human A549 cells assessed as inhibition of viral infection preincubated upto 12 hrs followed by viral infection and measured after 48 hrs. Type of assay: functional. The settings on record: Orthoebolavirus, time 60 hrs.
Another assay concerns Zaire ebolavirus. Briefly: Antiviral activity against Zaire ebolavirus infected in african green monkey assessed as reduction in viral infection preincubated for 1 hr followed by viral infection 1 hr and measured after 8 days by crystal violet staining based plaque assay. Type of assay: functional, organism-based, Vero E6. The settings on record: Vero C1008.
In assay [4] the test system is Ebolavirus. Briefly: Antiviral activity against HIV based pseudotyped virus expressing Ebola-GP infected in human HeLa cells assessed as reduction in viral infection preincubated for 1 hrs followed by viral infection and measured after 48hrs by Steady-Glo luciferase assay. Type of assay: functional, organism-based. The settings on record: Orthoebolavirus.
Assay [5] has as its system Ebolavirus. Description: Antiviral activity against HIV based pseudotyped virus expressing Ebola-GP infected in human 293T cells assessed as inhibition of viral infection preincubated for 1 hr followed by viral infection 1 hr and measured after 72 hrs. Type of assay: functional. The settings on record: Orthoebolavirus, 293TA; time 74 hrs.
Assay [6] relates to Ebolavirus. Briefly: Antiviral activity against Zaire Ebola virus infected in African green monkey assessed as reduction in viral infection incubated for 48hrs by GFP fluorescence based method. Type of assay: functional, organism-based, Vero E6. The settings on record: Orthoebolavirus, Vero C1008, 48 h.
Assay [7] relates to Ebolavirus. Description: Antiviral activity against VSV based pseudotyped virus expressing Ebola-GP infected in […] cells assessed as reduction in viral infection incubated for 24 hrs by linear regression analysis. It is filed as functional, organism-based. The settings on record: Orthoebolavirus.
For assay [8], the system named is Ebolavirus. Briefly: Antiviral activity against Ebola virus infected in […] cells assessed as reduction in viral infection incubated for 10 days by crystal violet staining based method. It is filed as functional, organism-based. The settings on record: Orthoebolavirus, 240 h.
The test system of assay [9] is Ebolavirus. Briefly: Antiviral activity against Ebola virus infected in African green monkey Vero E6 cells assessed as reduction in viral titer infected for 1 hr followed by compound addition and measured after 5 days by immunofocus assay. Type of assay: functional, organism-based. The settings on record: Orthoebolavirus, Vero C1008.
Assay [10] deals with Ebolavirus. Description: Antiviral activity against Ebola virus. Type of assay: functional, organism-based. The settings on record: Orthoebolavirus.

One may read the IC50 as the concentration that inhibits the measured activity by half. What is called EC50 is the concentration needed to bring the measured effect to its halfway point. Take `COC(=O)c1ccc(COc2ccccc2CN2CCN(C(=O)CNC(=O)CC34CC5CC(CC(C5)C3)C4)CC2)cc1`: it took 0.13 µM to reach half-maximal inhibition in assay [1] (IC50). For the same compound, the EC50 in the assay on Ebolavirus [2] is 0.16 µM. `O=C(CC12CC3CC(CC(C3)C1)C2)NCC(=O)N1CCN(Cc2ccccc2)CC1`: the IC50 in [1] came to 1.6 µM. Usually IC90 stands for the point of the concentration-response curve where the effect stands at 90%. On to `COc1ccc(S(=O)(=O)N(CC(=O)Nc2ccccc2-c2ccccc2)c2ccc(C)cc2)cc1`, for which, in the assay with Ebolavirus [3], the IC90 was 8.6 µM. Also, the IC50 with Zaire ebolavirus amounted to 8.07 µM. In the case of `CCN(CC)CC(=O)NNc1ccccc1Sc1cc(Cl)ccc1[N+](=O)[O-]`, the IC50 in the assay with Ebolavirus [4] was 4.69 µM. In the case of `O=C(CNCCC1CCN(Cc2ccccc2)CC1)Nn1c2ccccc2c2ccccc21`, the IC50 in the assay on Ebolavirus [4] came to 0.37 µM. Consider `FC(C1=Nc2ccccc2N=C(c2ccccc2)C1)C(F)(F)F` (configuration not stated), for which the IC90 in the assay with Ebolavirus [5] is 12.1 µM. Further, the IC50 in the assay with Ebolavirus [6] amounted to 10 µM. Turning to `CCOc1ccc(NC(=O)CSc2nnc(COc3cccc(N(C)C)c3)n2-c2ccccc2)cc1`, the IC90 in the assay with Ebolavirus [3] turned out to be 25.7 µM. For the same compound, in the assay with Zaire ebolavirus, the IC50 was 10 µM. With `O=C(CN1CCCC1)NNc1ccccc1Sc1cc(Cl)ccc1[N+](=O)[O-]`, the IC50 in the assay on Ebolavirus [4] was 2.04 µM. Take `C[C@]12CC3CC(C(=O)N[C@H]4CC[C@H](N)CC4)(C1)C[C@@](c1ccccc1)(C3)C2`: the concentration for a half-maximal effect (EC50) in the assay on Ebolavirus [7] and in the assay with Ebolavirus [8] was 0.24 µM in each case. Regarding `NC(=O)c1nc(F)cnc1O` [FAVIPIRAVIR], the IC50 in the assay on Ebolavirus [9] is 67 µM.

`CCC(CC)COC(=O)[C@H](C)N[P@](=O)(OC[C@H]1O[C@@](C#N)(c2ccc3c(N)ncnn23)[C@H](O)[C@@H]1O)Oc1ccccc1` [REMDESIVIR] registered an IC50 in the assay with Ebolavirus [2] of 86 µM. `CN(C)CCOc1ccc(/C(=C(/CCCl)c2ccccc2)c2ccccc2)cc1` [TOREMIFENE]: in the assay with Ebolavirus [10], inhibition was half-maximal at 0.162 µM (IC50).
